Measured values from patent US7982053B2, “Peptide deformylase inhibitors” (GlaxoSmithKline LLC, priority 2005, dated 2011).

test system: Mycobacterium tuberculosis H37Rv; test: Mycobacterium tuberculosis Susceptibility Assay (Resazurin); type: cell-based; conditions: 7H9+ADC medium, 37° C., read-out: MIC (minimal inhibitory concentration)

Row | Structure (SMILES) | MIC [µg/mL]
1 | O=CN(O)C[C@@H](CC1CCCC1)C(=O)N1CCC[C@H]1C(=O)NC(=O)c1ccc(F)cc1 [Example 1, 1-((2R)-3-cyclopentyl-2-{[formyl(hydroxy)amino]methyl}propanoyl)-N-[(4-fluorophenyl)carbonyl]-L-prolinamide] | ≤ 32
2 | CC(=O)NC(=O)[C@@H]1CCCN1C(=O)[C@H](CC1CCCC1)CN(O)C=O [Example 2, N-acetyl-1-((2R)-3-cyclopentyl-2-{[formyl(hydroxy)amino]methyl}propanoyl)-L-prolinamide] | ≤ 32
3 | O=CN(O)C[C@@H](CC1CCCC1)C(=O)N1CCC[C@H]1C(=O)NC(=O)c1ccccc1 [Example 3, 1-((2R)-3-cyclopentyl-2-{[formyl(hydroxy)amino]methyl}propanoyl)-N-(phenylcarbonyl)-L-prolinamide] | ≤ 32
4 | COCC(=O)NC(=O)[C@@H]1CCCN1C(=O)[C@H](CC1CCCC1)CN(O)C=O [Example 5, 1-((2R)-3-cyclopentyl-2-{[formyl(hydroxy)amino]methyl}propanoyl)-N-[(methyloxy)acetyl]-L-prolinamide] | ≤ 32
5 | O=CN(O)C[C@@H](CC1CCCC1)C(=O)N1CCC[C@H]1C(=O)NC(=O)c1ccc(C(F)(F)F)nc1 [Example 6, N-[1-((2R)-3-cyclopentyl-2-{[formyl(hydroxy)amino]methyl}propanoyl)-L-prolyl]-6-(trifluoromethyl)-3-pyridinecarboxamide] | ≤ 32
6 | Cc1cc(C(=O)NC(=O)[C@@H]2CCCN2C(=O)[C@H](CC2CCCC2)CN(O)C=O)nn1C [Example 7, 1-((2R)-3-cyclopentyl-2-{[formyl(hydroxy)amino]methyl}propanoyl)-N-[(1,5-dimethyl-1H-pyrazol-3-yl)carbonyl]-L-prolinamide] | ≤ 32
7 | Cc1cc(C(=O)NC(=O)[C@@H]2CCCN2C(=O)[C@H](CC2CCCC2)CN(O)C=O)n(C)n1 [Example 8, 1-((2R)-3-cyclopentyl-2-{[formyl(hydroxy)amino]methyl}propanoyl)-N-[(1,3-dimethyl-1H-pyrazol-5-yl)carbonyl]-L-prolinamide] | ≤ 32
8 | Cc1cc(C(=O)NC(=O)[C@@H]2CCCN2C(=O)[C@H](CC2CCCC2)CN(O)C=O)no1 [Example 9, 1-((2R)-3-cyclopentyl-2-{[formyl(hydroxy)amino]methyl}propanoyl)-N-[(5-methyl-3-isoxazolyl)carbonyl]-L-prolinamide] | ≤ 32
9 | O=CN(O)C[C@@H](CC1CCCC1)C(=O)N1CCC[C@H]1C(=O)NC(=O)c1ccccc1F [Example 10, 1-((2R)-3-cyclopentyl-2-{[formyl(hydroxy)amino]methyl}propanoyl)-N-[(2-fluorophenyl)carbonyl]-L-prolinamide] | ≤ 32
10 | O=CN(O)C[C@@H](CC1CCCC1)C(=O)N1CCC[C@H]1C(=O)NC(=O)c1cccc(F)c1 [Example 11, 1-((2R)-3-cyclopentyl-2-{[formyl(hydroxy)amino]methyl}propanoyl)-N-[(3-fluorophenyl)carbonyl]-L-prolinamide] | ≤ 32
11 | Cc1ccc(C(=O)NC(=O)[C@@H]2CCCN2C(=O)[C@H](CC2CCCC2)CN(O)C=O)cc1F [Example 12] | ≤ 32
12 | N#Cc1cccc(C(=O)NC(=O)[C@@H]2CCCN2C(=O)[C@H](CC2CCCC2)CN(O)C=O)c1 [Example 14, N-[(3-cyanophenyl)carbonyl]-1-((2R)-3-cyclopentyl-2-{[formyl(hydroxy)amino]methyl}propanoyl)-L-prolinamide] | ≤ 32
13 | O=CN(O)C[C@@H](CC1CCCC1)C(=O)N1CCC[C@H]1C(=O)NC(=O)c1cc(F)ccc1F [Example 15, 1-((2R)-3-cyclopentyl-2-{[formyl(hydroxy)amino]methyl}propanoyl)-N-[(2,5-difluorophenyl)carbonyl]-L-prolinamide] | ≤ 32
14 | O=CN(O)C[C@@H](CC1CCCC1)C(=O)N1CCC[C@H]1C(=O)NC(=O)c1ccncc1 [Example 17, N-[1-((2R)-3-cyclopentyl-2-{[formyl(hydroxy)amino]methyl}propanoyl)-L-prolyl]-4-pyridinecarboxamide] | ≤ 32
15 | O=CN(O)C[C@@H](CC1CCCC1)C(=O)N1CCC[C@H]1C(=O)NC(=O)c1c(F)cccc1F [Example 18, 1-((2R)-3-cyclopentyl-2-{[formyl(hydroxy)amino]methyl}propanoyl)-N-[(2,6-difluorophenyl)carbonyl]-L-prolinamide] | ≤ 32
16 | N[C@H]1CC[C@H](OC(=O)NC(=O)[C@@H]2CCCN2C(=O)[C@H](CC2CCCC2)CN(O)C=O)CC1 [Example 19, N-{[(trans-4-aminocyclohexyl)oxy]carbonyl}-1-((2R)-3-cyclopentyl-2-{[formyl(hydroxy)amino]methyl}propanoyl)-L-prolinamide] | ≤ 32
17 | O=CN(O)C[C@@H](CC1CCCC1)C(=O)N1CCC[C@H]1C(=O)NC(=O)c1ccc(N2CCOCC2)nc1 [Example 20, N-[1-((2R)-3-cyclopentyl-2-{[formyl(hydroxy)amino]methyl}propanoyl)-L-prolyl]-6-(4-morpholinyl)-3-pyridinecarboxamide] | ≤ 32
